Like-named read-outs stand apart in the source and are kept apart here.
Experiments:
[1] = Accelerated stability studies (PXRD physical form stability); assay type: physicochemical; conditions: accelerated conditions 75% humidity and 40° C., one year, by PXRD
Procedure: Stability studies of the DACT novel forms were conducted using accelerated conditions (75% humidity and 40° C.) of which are obvious to the artisan in the field, for more than one year. […] Selected data of the novel complexes of DACT:methylparaben, propylparaben and diphenic acid proves this point.

[2] = test system: U-2 OS; test: Monolayer cell culture IC50 (CellTiter-Glo viability), U-2 OS; assay type: cell-based; conditions: Sarcoma, U-2 OS, monolayer, 72 hours treatment, average of three replications
Procedure: (§1) Cancer cell lines listed in Table 1 were subjected for testing anti-cancer potency or the half maximal inhibitory concentration (IC50) of the D-Actinomycin (DACT) molecular complexes.
(§2) The SK-ES-1, U-2 OS, and SAOS-2 cells were cultured in a growth medium that is ATCC-formulated McCoy's 5a Medium Modified, Catalog No. 30-2007. The PC-3, PANC-1, SK-Mel-5, A549, H460, and H1299 were cultured in a growth medium that is ATCC-formulated Dulbecco's Modified Eagle's Medium (DMEM), Catalog No. 30-2002. The cells were seeded on 96-well microtiter plates with 3500 cells per well and cultured in an incubator (Model 3120, Thermo Scientific, USA) with a constant temperature at 37° C. and 5% carbon dioxide (CO2) gas for 24 hours.
(§3) The new DACT-molecular complexes were made into a series with concentration of 200 nM to 40 nM, 8 nM, 1.6 nM, 0.32 nM, and 0.064 nM. 100 μl of each solution was then added into each well to bring out the final concentration of the drug treatment at 100 nM, 20 nM, 4 nM, 0.8 nM, 0.16 nM, or 0.032 nM, respectively.
(§4) The treated cells in the 96 well plate was then further cultured at the same conditions for 72 hours and then subjected for a final cell viability measurement. The measurement used a homogeneous method to determine the number of metabolically active cells presented in each of treatments. A testing reagent for the measurement is a mixture solution of the CellTiter-Glo® 2.0 reagent (CTG, Promega Cat #G9243, USA) and growth medium in 1:1 ratio in this respect.
(§5) The 96-well plate with the new molecular complex treated cells was taken out from incubator after the 72 hours of incubation, and the treatment solution in each well was removed using a multichannel pipette, and 100 μl of the testing reagent were added into each well. The plate was then placed on a plate shaker for 15 min. The plate was covered with a piece of aluminum foil to protect the CTG luminescence during the shaking time.
(§6) Then 90 μl of the 100 μl testing reagent were transferred into an opaque-walled 96-well plate for the CTG luminescence reading on a plate reader (SynergyH4 Hybrid Reader, Biotek, USA). The luminescence intensity of each treatment was positively correlated with the number of cells survived during the treatments.
(§7) All the treatment data was normalized by comparing with the control samples that had only growth medium without any molecular complexes. The half maximal inhibitory concentration (IC50) data was calculated using the nonlinear regression model and dose-responses (inhibition) curve built in the software. Each of treatments was performed in three replications each time and repeated three times for validation. The IC50 average […] (Avg) and standard deviation (STDV) were calculated based on the three replications.

[3] = test system: SK-Mel-5; test: Monolayer cell culture IC50 (CellTiter-Glo viability), SK-Mel-5; assay type: cell-based; conditions: Skin, SK-Mel-5, monolayer, 72 hours treatment, average of three replications
Procedure: as §1, §2, §3, §4, §5, §6, §7

[4] = test system: A549; test: Monolayer cell culture IC50 (CellTiter-Glo viability), A549; assay type: cell-based; conditions: Lung, 72 hours treatment, average of three replications
Procedure: as §1, §2, §3, §4, §5, §6, §7

[5] = Test I, read-out: IC50 Test (I) Avg
[6] = Test II, read-out: IC50 Test (II) Avg
[7] = Test III, read-out: IC50 Test (III) Avg

In the case of `CCCOC(=O)c1ccc(O)cc1.Cc1c2oc3c(C)ccc(C(=O)NC4C(=O)NC(C(C)C)C(=O)N5CCCC5C(=O)N(C)CC(=O)N(C)C(C(C)C)C(=O)OC4C)c3nc-2c(C(=O)NC2C(=O)NC(C(C)C)C(=O)N3CCCC3C(=O)N(C)CC(=O)N(C)C(C(C)C)C(=O)OC2C)c(N)c1=O` (stereo not shown) [DACT-propylparaben], the physical form stability [1] is reported as “stable”, the IC50 [2, 5] is reported as 3.63 nM and the IC50 [2, 6] is reported as 3.85 nM. For the same compound, the IC50 [2, 7] was 1.79 nM, the IC50 [3, 5] was 0.39 nM and the IC50 [3, 6] was 0.27 nM. It also gave an IC50 [3, 7] of 2.59 nM, an IC50 [4, 5] of 1.39 nM and an IC50 [4, 6] of 1.74 nM. The IC50 [4, 7] was 1.63 nM.
